# Experimental data from BindingDB's records for patent US12570607 (CSPC Zhongqi Pharmaceutical Technology (Shijiazhuang) Co., 2026).
# Target: Cyclin-dependent kinase 6 (Homo sapiens, UniProt Q00534)
# Assay: Inhibitory Effect Assay
# Procedure: (§1) A compound dissolved in DMSO (50 nL) was transferred to the kinase reaction plate by using acoustic technology (Echo). 5 μL of a CDK kinase dilution solution was added to the kinase reaction plate and incubated at room temperature for 10 minutes after centrifugation. 5 μL of a substrate premix solution was added to the plate, and the final concentrations of the substrate and the ATP in each well were shown in Table 1. After centrifugation, the reaction was performed at 30° C. for 120 minutes.
# Cyclin-dependent kinase 6, sequence (Q00534 whole entry): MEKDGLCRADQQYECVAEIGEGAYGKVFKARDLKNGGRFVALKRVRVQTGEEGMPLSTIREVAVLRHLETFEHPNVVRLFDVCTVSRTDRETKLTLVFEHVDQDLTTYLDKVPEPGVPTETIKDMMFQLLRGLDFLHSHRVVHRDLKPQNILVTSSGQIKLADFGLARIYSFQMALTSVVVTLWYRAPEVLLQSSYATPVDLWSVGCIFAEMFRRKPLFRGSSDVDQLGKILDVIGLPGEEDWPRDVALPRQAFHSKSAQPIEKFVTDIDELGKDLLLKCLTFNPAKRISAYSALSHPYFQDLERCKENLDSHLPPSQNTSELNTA
row,Compound,IC50
1,"COC(=O)N[C@@H]1CCC[C@H](C(=O)Nc2cc(-c3ccc(F)cc3OC)c(F)cn2)C1 [US12570607, Example 36]",3370 nM
2,"CNC(=O)N[C@@H]1CCC[C@H](C(=O)Nc2cc(-c3ccc(F)cc3OC)c(F)cn2)C1 [US12570607, Example 37]",2640 nM
3,"COc1cc(F)ccc1-c1cc(NC(=O)[C@H]2CCC[C@@H](NC(=O)Nc3cc(C)no3)C2)ncc1F [US12570607, Example 41]",4980 nM
4,"COc1cc(F)ccc1-c1cc(NC(=O)[C@H]2CCC[C@@H](NC(=O)C(F)(F)F)C2)ncc1F [US12570607, Example 42]",1010 nM
5,"COc1cc(F)ccc1-c1cc(NC(=O)[C@H]2CCC[C@@H](NC(=O)c3ccccn3)C2)ncc1F [US12570607, Example 43]",3080 nM
6,"COc1cc(F)ccc1-c1cc(NC(=O)[C@H]2CCC[C@@H](NC(=O)CO)C2)ncc1F [US12570607, Example 45]",2790 nM
7,"COc1cc(F)ccc1-c1cc(NC(=O)[C@H]2CCC[C@@H](NC(=O)[C@H](C)O)C2)ncc1F [US12570607, Example 48]",3630 nM
8,"COc1cc(F)c(F)cc1-c1cc(NC(=O)[C@H]2CCC[C@@H](NC(=O)C3(C#N)CC3)C2)ncc1F [US12570607, Example 67]",600 nM
9,"COc1cc(F)c(F)cc1-c1cc(NC(=O)[C@H]2CCC[C@@H](NC(=O)CO)C2)ncc1F [US12570607, Example 68]",2030 nM

# Target: Cyclin-dependent kinase 5 (Homo sapiens, UniProt Q00535)
# Assay: Inhibitory Effect Assay
# Procedure: as §1
# Cyclin-dependent kinase 5, sequence (Q00535 whole entry): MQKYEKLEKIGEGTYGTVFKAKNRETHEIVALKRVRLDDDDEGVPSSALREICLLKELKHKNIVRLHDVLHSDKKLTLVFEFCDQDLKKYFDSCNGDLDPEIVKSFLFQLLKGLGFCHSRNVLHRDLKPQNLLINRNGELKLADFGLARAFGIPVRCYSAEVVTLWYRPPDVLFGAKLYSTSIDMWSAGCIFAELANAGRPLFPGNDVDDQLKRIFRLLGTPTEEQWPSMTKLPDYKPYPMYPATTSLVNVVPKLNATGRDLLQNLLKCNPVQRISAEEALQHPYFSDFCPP
row,Compound,IC50
1,"COC(=O)N[C@@H]1CCC[C@H](C(=O)Nc2cc(-c3ccc(F)cc3OC)c(F)cn2)C1 [US12570607, Example 36]",209 nM
2,"CNC(=O)N[C@@H]1CCC[C@H](C(=O)Nc2cc(-c3ccc(F)cc3OC)c(F)cn2)C1 [US12570607, Example 37]",248 nM
3,"COc1cc(F)ccc1-c1cc(NC(=O)[C@H]2CCC[C@@H](NC(=O)Nc3cc(C)no3)C2)ncc1F [US12570607, Example 41]",361 nM
4,"COc1cc(F)ccc1-c1cc(NC(=O)[C@H]2CCC[C@@H](NC(=O)C(F)(F)F)C2)ncc1F [US12570607, Example 42]",140 nM
5,"COc1cc(F)ccc1-c1cc(NC(=O)[C@H]2CCC[C@@H](NC(=O)c3ccccn3)C2)ncc1F [US12570607, Example 43]",296 nM
6,"COc1cc(F)ccc1-c1cc(NC(=O)[C@H]2CCC[C@@H](NC(=O)CO)C2)ncc1F [US12570607, Example 45]",284 nM
7,"COc1cc(F)ccc1-c1cc(NC(=O)[C@H]2CCC[C@@H](NC(=O)[C@H](C)O)C2)ncc1F [US12570607, Example 48]",301 nM
8,"COc1cc(F)c(F)cc1-c1cc(NC(=O)[C@H]2CCC[C@@H](NC(=O)C3(C#N)CC3)C2)ncc1F [US12570607, Example 67]",82.9 nM
9,"COc1cc(F)c(F)cc1-c1cc(NC(=O)[C@H]2CCC[C@@H](NC(=O)CO)C2)ncc1F [US12570607, Example 68]",162 nM

# Target: Cyclin-dependent kinase 1 (Homo sapiens, UniProt P06493)
# Assay: Inhibitory Effect Assay
# Procedure: as §1
# Cyclin-dependent kinase 1, sequence (P06493 whole entry): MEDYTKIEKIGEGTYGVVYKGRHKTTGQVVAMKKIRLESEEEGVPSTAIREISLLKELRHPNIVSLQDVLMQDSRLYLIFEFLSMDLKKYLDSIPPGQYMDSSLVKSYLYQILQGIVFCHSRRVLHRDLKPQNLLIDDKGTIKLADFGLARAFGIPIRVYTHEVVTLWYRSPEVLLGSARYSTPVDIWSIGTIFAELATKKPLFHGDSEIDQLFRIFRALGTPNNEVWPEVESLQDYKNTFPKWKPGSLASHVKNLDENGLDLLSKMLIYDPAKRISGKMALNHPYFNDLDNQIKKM
row,Compound,IC50
1,"COC(=O)N[C@@H]1CCC[C@H](C(=O)Nc2cc(-c3ccc(F)cc3OC)c(F)cn2)C1 [US12570607, Example 36]",97 nM
2,"CNC(=O)N[C@@H]1CCC[C@H](C(=O)Nc2cc(-c3ccc(F)cc3OC)c(F)cn2)C1 [US12570607, Example 37]",82 nM
3,"COc1cc(F)ccc1-c1cc(NC(=O)[C@H]2CCC[C@@H](NC(=O)Nc3cc(C)no3)C2)ncc1F [US12570607, Example 41]",196 nM
4,"COc1cc(F)ccc1-c1cc(NC(=O)[C@H]2CCC[C@@H](NC(=O)C(F)(F)F)C2)ncc1F [US12570607, Example 42]",72.6 nM
5,"COc1cc(F)ccc1-c1cc(NC(=O)[C@H]2CCC[C@@H](NC(=O)c3ccccn3)C2)ncc1F [US12570607, Example 43]",80 nM
6,"COc1cc(F)ccc1-c1cc(NC(=O)[C@H]2CCC[C@@H](NC(=O)CO)C2)ncc1F [US12570607, Example 45]",93.2 nM
7,"COc1cc(F)ccc1-c1cc(NC(=O)[C@H]2CCC[C@@H](NC(=O)[C@H](C)O)C2)ncc1F [US12570607, Example 48]",133 nM
8,"COc1cc(F)c(F)cc1-c1cc(NC(=O)[C@H]2CCC[C@@H](NC(=O)CO)C2)ncc1F [US12570607, Example 68]",73.6 nM

# Target: Cyclin-dependent kinase 2 (Homo sapiens, UniProt P24941)
# Assay: Inhibitory Effect Assay
# Procedure: as §1
row,Compound,IC50
1,"COC(=O)N[C@@H]1CCC[C@H](C(=O)Nc2cc(-c3ccc(F)cc3OC)c(F)cn2)C1 [US12570607, Example 36]",558 nM
2,"CNC(=O)N[C@@H]1CCC[C@H](C(=O)Nc2cc(-c3ccc(F)cc3OC)c(F)cn2)C1 [US12570607, Example 37]",688 nM
3,"COc1cc(F)ccc1-c1cc(NC(=O)[C@H]2CCC[C@@H](NC(=O)Nc3cc(C)no3)C2)ncc1F [US12570607, Example 41]",1250 nM
4,"COc1cc(F)ccc1-c1cc(NC(=O)[C@H]2CCC[C@@H](NC(=O)C(F)(F)F)C2)ncc1F [US12570607, Example 42]",253 nM
5,"COc1cc(F)ccc1-c1cc(NC(=O)[C@H]2CCC[C@@H](NC(=O)c3ccccn3)C2)ncc1F [US12570607, Example 43]",823 nM
6,"COc1cc(F)ccc1-c1cc(NC(=O)[C@H]2CCC[C@@H](NC(=O)CO)C2)ncc1F [US12570607, Example 45]",564 nM
7,"COc1cc(F)c(F)cc1-c1cc(NC(=O)[C@H]2CCC[C@@H](NC(=O)C3(C#N)CC3)C2)ncc1F [US12570607, Example 67]",392 nM
8,"COc1cc(F)c(F)cc1-c1cc(NC(=O)[C@H]2CCC[C@@H](NC(=O)CO)C2)ncc1F [US12570607, Example 68]",274 nM

# Target: Cyclin-dependent kinase 9 (Homo sapiens, UniProt P50750)
# Assay: Inhibitory Effect Assay
# Procedure: as §1
# Cyclin-dependent kinase 9, sequence (P50750 whole entry): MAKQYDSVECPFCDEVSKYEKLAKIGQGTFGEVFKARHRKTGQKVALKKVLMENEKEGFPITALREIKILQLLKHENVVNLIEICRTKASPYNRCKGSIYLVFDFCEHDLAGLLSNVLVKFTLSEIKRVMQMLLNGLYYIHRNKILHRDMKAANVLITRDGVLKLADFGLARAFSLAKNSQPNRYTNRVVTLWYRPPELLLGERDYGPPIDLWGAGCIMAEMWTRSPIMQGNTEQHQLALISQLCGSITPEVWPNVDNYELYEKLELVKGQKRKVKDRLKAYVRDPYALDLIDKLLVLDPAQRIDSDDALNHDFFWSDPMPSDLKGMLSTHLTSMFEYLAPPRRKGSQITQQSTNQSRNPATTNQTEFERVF
row,Compound,IC50
1,"COC(=O)N[C@@H]1CCC[C@H](C(=O)Nc2cc(-c3ccc(F)cc3OC)c(F)cn2)C1 [US12570607, Example 36]",6.88 nM
2,"CNC(=O)N[C@@H]1CCC[C@H](C(=O)Nc2cc(-c3ccc(F)cc3OC)c(F)cn2)C1 [US12570607, Example 37]",6.44 nM
3,"COc1cc(F)ccc1-c1cc(NC(=O)[C@H]2CCC[C@@H](NC(=O)Nc3cc(C)no3)C2)ncc1F [US12570607, Example 41]",7.65 nM
4,"COc1cc(F)ccc1-c1cc(NC(=O)[C@H]2CCC[C@@H](NC(=O)C(F)(F)F)C2)ncc1F [US12570607, Example 42]",6.66 nM
5,"COc1cc(F)ccc1-c1cc(NC(=O)[C@H]2CCC[C@@H](NC(=O)c3ccccn3)C2)ncc1F [US12570607, Example 43]",7.17 nM
6,"COc1cc(F)ccc1-c1cc(NC(=O)[C@H]2CCC[C@@H](NC(=O)CO)C2)ncc1F [US12570607, Example 45]",6.92 nM
7,"COc1cc(F)ccc1-c1cc(NC(=O)[C@H]2CCC[C@@H](NC(=O)[C@H](C)O)C2)ncc1F [US12570607, Example 48]",6.84 nM
8,"COc1cc(F)c(F)cc1-c1cc(NC(=O)[C@H]2CCC[C@@H](NC(=O)C3(C#N)CC3)C2)ncc1F [US12570607, Example 67]",5.45 nM
9,"COc1cc(F)c(F)cc1-c1cc(NC(=O)[C@H]2CCC[C@@H](NC(=O)CO)C2)ncc1F [US12570607, Example 68]",5.55 nM

# Target: Cyclin-dependent kinase 7 (Homo sapiens, UniProt P50613)
# Assay: Inhibitory Effect Assay
# Procedure: as §1
# Cyclin-dependent kinase 7, sequence (P50613 whole entry): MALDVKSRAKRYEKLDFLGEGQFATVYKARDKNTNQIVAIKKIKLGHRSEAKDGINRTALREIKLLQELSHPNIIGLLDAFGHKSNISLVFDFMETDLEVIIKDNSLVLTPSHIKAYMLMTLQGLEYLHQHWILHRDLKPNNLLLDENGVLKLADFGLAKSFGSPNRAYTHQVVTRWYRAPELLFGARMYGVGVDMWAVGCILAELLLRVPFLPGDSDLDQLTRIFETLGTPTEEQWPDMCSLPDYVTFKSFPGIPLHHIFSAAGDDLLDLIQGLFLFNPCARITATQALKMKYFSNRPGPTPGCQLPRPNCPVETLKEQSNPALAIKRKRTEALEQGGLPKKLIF
row,Compound,IC50
1,"COC(=O)N[C@@H]1CCC[C@H](C(=O)Nc2cc(-c3ccc(F)cc3OC)c(F)cn2)C1 [US12570607, Example 36]",3720 nM
2,"COc1cc(F)ccc1-c1cc(NC(=O)[C@H]2CCC[C@@H](NC(=O)Nc3cc(C)no3)C2)ncc1F [US12570607, Example 41]",1080 nM
3,"COc1cc(F)ccc1-c1cc(NC(=O)[C@H]2CCC[C@@H](NC(=O)c3ccccn3)C2)ncc1F [US12570607, Example 43]",2410 nM
4,"COc1cc(F)ccc1-c1cc(NC(=O)[C@H]2CCC[C@@H](NC(=O)CO)C2)ncc1F [US12570607, Example 45]",4440 nM
5,"COc1cc(F)ccc1-c1cc(NC(=O)[C@H]2CCC[C@@H](NC(=O)[C@H](C)O)C2)ncc1F [US12570607, Example 48]",2150 nM
6,"COc1cc(F)c(F)cc1-c1cc(NC(=O)[C@H]2CCC[C@@H](NC(=O)C3(C#N)CC3)C2)ncc1F [US12570607, Example 67]",1420 nM
7,"COc1cc(F)c(F)cc1-c1cc(NC(=O)[C@H]2CCC[C@@H](NC(=O)CO)C2)ncc1F [US12570607, Example 68]",2630 nM

# Target: Cyclin-dependent kinase 4 (Homo sapiens, UniProt P11802)
# Assay: Inhibitory Effect Assay
# Procedure: as §1
# Cyclin-dependent kinase 4, sequence (P11802 whole entry): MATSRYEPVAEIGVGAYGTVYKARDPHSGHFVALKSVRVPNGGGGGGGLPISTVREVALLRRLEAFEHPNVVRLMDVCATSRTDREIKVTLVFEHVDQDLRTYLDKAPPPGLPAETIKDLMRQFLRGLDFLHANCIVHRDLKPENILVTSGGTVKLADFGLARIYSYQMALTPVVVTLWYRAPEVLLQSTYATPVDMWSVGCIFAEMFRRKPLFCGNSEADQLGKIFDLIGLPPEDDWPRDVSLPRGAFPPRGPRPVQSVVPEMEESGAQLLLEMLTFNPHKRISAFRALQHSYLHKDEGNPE
row,Compound,IC50
1,"COC(=O)N[C@@H]1CCC[C@H](C(=O)Nc2cc(-c3ccc(F)cc3OC)c(F)cn2)C1 [US12570607, Example 36]",630 nM
2,"CNC(=O)N[C@@H]1CCC[C@H](C(=O)Nc2cc(-c3ccc(F)cc3OC)c(F)cn2)C1 [US12570607, Example 37]",361 nM
3,"COc1cc(F)ccc1-c1cc(NC(=O)[C@H]2CCC[C@@H](NC(=O)Nc3cc(C)no3)C2)ncc1F [US12570607, Example 41]",629 nM
4,"COc1cc(F)ccc1-c1cc(NC(=O)[C@H]2CCC[C@@H](NC(=O)C(F)(F)F)C2)ncc1F [US12570607, Example 42]",184 nM
5,"COc1cc(F)ccc1-c1cc(NC(=O)[C@H]2CCC[C@@H](NC(=O)c3ccccn3)C2)ncc1F [US12570607, Example 43]",582 nM
6,"COc1cc(F)ccc1-c1cc(NC(=O)[C@H]2CCC[C@@H](NC(=O)CO)C2)ncc1F [US12570607, Example 45]",785 nM
7,"COc1cc(F)ccc1-c1cc(NC(=O)[C@H]2CCC[C@@H](NC(=O)[C@H](C)O)C2)ncc1F [US12570607, Example 48]",767 nM
8,"COc1cc(F)c(F)cc1-c1cc(NC(=O)[C@H]2CCC[C@@H](NC(=O)C3(C#N)CC3)C2)ncc1F [US12570607, Example 67]",268 nM
9,"COc1cc(F)c(F)cc1-c1cc(NC(=O)[C@H]2CCC[C@@H](NC(=O)CO)C2)ncc1F [US12570607, Example 68]",402 nM
